Results published in patent US20130267532A1, “CYCLIC AMIDE COMPOUNDS AND THEIR USE IN THE TREATMENT OF DISEASE” (priority 2010, published 2013).

Molecular target: T1, hERG current (Homo sapiens, UniProt Q12809)
T1 construct: expressed in transfected cells; host or cells: CHO-K1 cells expressing hERG (Persson et al., J. Cardiovasc. Electrophysiol. 16, 329-341, 2005)
Assay: hERG analysis Method 2 (IonWorks HT, CHO cells)
Format: cell-based
Conditions: hERG-expressing CHO cells, ~21° C., 8-point non-cumulative curves
Description: The hERG-expressing Chinese hamster ovary K1 (CHO) cells described by (Persson, Carlsson, Duker, & Jacobson, 2005) are grown to semi-confluence at 37° C. in a humidified environment (5% CO2) in F-12 Ham medium containing L-glutamine, 10% foetal calf serum (FCS) and 0.6 mg/mL hygromycin (all available from Sigma-Aldrich). Prior to use, the monolayer is washed using a pre-warmed (37° C.) 3 mL aliquot of Versene 1:5,000 (Invitrogen). After aspiration of this solution the flask is incubated at 37° C. in an incubator with a further 2 mL of Versene 1:5,000 for a period of 6 minutes. Cells are then detached from the bottom of the flask by gentle tapping and 10 mL of Dulbecco's Phosphate-Buffered Saline containing calcium (0.9 mM) and magnesium (0.5 mM) (PBS; Invitrogen) is then added to the flask and aspirated into a 15 mL centrifuge tube prior to centrifugation (50 g, for 4 mins). The resulting supernatant is discarded and the pellet gently re-suspended in 3 mL of PBS. A 0.5 mL aliquot of cell suspension is removed and the number of viable cells (based on trypan blue exclusion) is determined in an automated reader (Cedex; Innovatis) so that the cell re-suspension volume can be adjusted with PBS to give the desired final cell concentration. It is the cell concentration at this point in the assay that is quoted when referring to this parameter. […]

T1 sequence (Q12809 whole entry): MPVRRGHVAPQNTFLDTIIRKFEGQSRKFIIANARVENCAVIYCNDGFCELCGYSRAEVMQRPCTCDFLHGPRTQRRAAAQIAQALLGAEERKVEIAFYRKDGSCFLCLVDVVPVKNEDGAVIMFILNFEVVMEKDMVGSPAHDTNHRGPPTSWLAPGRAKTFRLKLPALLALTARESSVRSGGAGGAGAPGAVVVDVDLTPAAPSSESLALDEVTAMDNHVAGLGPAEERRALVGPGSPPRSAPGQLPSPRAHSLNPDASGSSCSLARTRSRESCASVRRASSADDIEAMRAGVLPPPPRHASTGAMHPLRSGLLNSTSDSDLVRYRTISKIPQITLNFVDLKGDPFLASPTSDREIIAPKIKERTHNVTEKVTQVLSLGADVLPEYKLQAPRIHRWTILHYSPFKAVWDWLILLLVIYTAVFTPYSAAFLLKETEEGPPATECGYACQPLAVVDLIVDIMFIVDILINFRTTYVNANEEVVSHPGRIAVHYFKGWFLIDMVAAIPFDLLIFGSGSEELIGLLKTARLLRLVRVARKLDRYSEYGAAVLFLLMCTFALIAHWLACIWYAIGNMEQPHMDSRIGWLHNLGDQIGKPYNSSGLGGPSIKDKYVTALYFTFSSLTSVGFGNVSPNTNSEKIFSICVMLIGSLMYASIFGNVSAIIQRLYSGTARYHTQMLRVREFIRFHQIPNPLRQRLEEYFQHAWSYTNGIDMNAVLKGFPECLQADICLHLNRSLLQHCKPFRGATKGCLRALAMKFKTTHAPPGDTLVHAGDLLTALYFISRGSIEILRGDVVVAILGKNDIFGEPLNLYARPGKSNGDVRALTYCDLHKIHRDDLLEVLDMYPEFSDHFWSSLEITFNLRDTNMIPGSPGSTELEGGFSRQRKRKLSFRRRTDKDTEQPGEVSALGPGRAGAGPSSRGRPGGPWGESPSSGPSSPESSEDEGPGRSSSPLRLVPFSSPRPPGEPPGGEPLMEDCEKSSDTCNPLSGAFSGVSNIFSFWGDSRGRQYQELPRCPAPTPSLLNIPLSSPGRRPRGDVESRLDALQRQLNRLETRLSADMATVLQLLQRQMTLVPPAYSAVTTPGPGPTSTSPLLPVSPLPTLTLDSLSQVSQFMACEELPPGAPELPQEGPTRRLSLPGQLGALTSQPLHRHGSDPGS

| Structure (SMILES) | IC50 [µM] |
| --- | --- |
| CCCCCNc1nc(N)nc(C)c1Cc1ccc(N2CCN(C)CC2=O)cc1OC [Example 2, 1-(4-{[2-Amino-4-methyl-6-(pentylamino)pyrimidin-5-yl]methyl}-3-methoxyphenyl)-4-methylpiperazin-2-one] | 5.41 |
| CCC[C@@H](CCO)Nc1nc(N)nc(C)c1Cc1ccc(N2CCN(C)CC2=O)cc1OC [Example 3, (S)-1-(4-{[2-Amino-4-(1-hydroxyhexan-3-ylamino)-6-methylpyrimidin-5-yl]methyl}-3-methoxyphenyl)-4-methylpiperazin-2-one] | > 33 |
